We go through nine compounds from US6399542B1, “Alkoxyimino-substituted bicyclic compounds compositions containing the same and method of making such compounds” (Agro-Kanesho Co., Ltd., priority 1997, dated 2002).

The melting point is the temperature, or range, at which the solid turns liquid.

Data set [1] relates to Psecidoperonospora cubensis. Description: Effect on Cucumber downy mildew (preventive spray test). The settings on record: 7 days after inoculation. Format: in vivo.
The subject of a further data set is Chochliobolus miyabeanus. Description: Effect on Rice brown spot (preventive spray test). Type of data set: in vivo. The settings on record: 7 days after inoculation.
A further data set deals with Rhizoctonia solani. Description: Effect on Rice sheath blight (preventive spray test). Conditions: 10 days after inoculation.
Another data set deals with Pyricularia oryzae. Format: in vivo. Conditions: Rice blast, 7 days after inoculation.
Another data set has as its system Erysiphe graminis. As to the kind of experiment: Effects on Barley powdery mildew (preventive spray test). Type of data set: in vivo. The settings on record: lesions counted seven days after inoculation.
The subject of another data set is Puccinia recondita. As to the kind of experiment: Effect on Wheat brown rust (preventive spray test). Format: in vivo. Conditions: 7 days after inoculation.
The next data set relates to Botrytis cinerea. Description: Effect on Cucumber gray mold (cotyledon paper disc test). Format: in vivo. The settings on record: 3 days after inoculation.
Another data set relates to Puccinia recondite. Description: Penetration and translocation in wheat leaves (covered leaf tip, brown rust). Format: in vivo.
For data set [2], the system named is Pseudoperonospora cubenis. Description: Penetration and translocation in cucumber leaf (drop on back of leaf, downy mildew). The settings on record: 10 μl drop on back of leaf, conc. of active ingredient 200 ppm, disease-free area 5 days after the spraying. Format: in vivo. The method, then:
Four points were marked at random on the first leaf of each cucumber seedling (variety: Shogoin aonaga fushinari) in two-leaf stage in each pot having a diameter of 6 cm. […] The leaf was kept in a greenhouse for one day and then uniformly inoculated with a zoospore suspension of Pseudoperonospora cubenis by means of a spray gun, then left to stand in a high-humidity room at 24° C. for 24 hours, and kept in a greenhouse. The area of the disease-free part 5 days after the spraying was represented in terms of the index.
3: At least 40% of the area of the leaf was free from the disease.
2: 20 to 40% of the area of the leaf was free from the disease.
1: An area larger than the spot of the drop but smaller than 20% of the area of the leaf was free from the disease.
0: Only the spot of the drop was free from the disease.

For another data set, the system named is Phytophthora infestans. Type of data set: in vivo. Conditions: Tomato late blight, 5 days after inoculation.
The mark [3] stands for this setting: conc. of active ingredient 20 ppm.
[4] abbreviates: conc. of active ingredient 100 ppm.
[5] abbreviates: conc. of active ingredient 4 ppm.
The mark [6] stands for this setting: conc. of active ingredient 200 ppm.

Like-named read-outs stand apart in the source and are kept apart here.

`CON=C1COc2cc(OCc3ccccc3/C(=N\OC)C(=O)OC)ccc21` [a-4, (E) methyl methoxyimino-[2-(3-methoxyimino-2,3-dihydrobenzofuran-6-yloxymethyl)-phenyl]acetate] had a melting point of 108 to 110 °C. For the same compound, the “Preventive rate (%)” value in data set [1] (setting [3]) worked out at 94%. In [1] (setting [4]), the “Preventive rate (%)” value is recorded as 94%. Further, in the data set on Chochliobolus miyabeanus (setting [3]), the “Preventive rate (%)” value is 75%. Moreover, the “Preventive rate (%)” value with Chochliobolus miyabeanus (setting [4]) was 80%. Further, the “Preventive rate (%)” value in the data set with Rhizoctonia solani (setting [3]) turned out to be 93%. For the same compound, the “Preventive rate (%)” value in the data set on Rhizoctonia solani (setting [4]) was determined as 92%. In the data set on Pyricularia oryzae (setting [3]), the “Preventive rate (%)” value was 86%. Also, the “Preventive rate (%)” value in the data set on Pyricularia oryzae (setting [4]) worked out at 90%. Further, the “Preventive rate (%)” value in the data set on Erysiphe graminis (setting [3]) is 93%. For the same compound, the “Preventive rate (%)” value in the data set with Erysiphe graminis (setting [4]) is given as 100%. The “Preventive rate (%)” value in the data set on Puccinia recondita (setting [3]) turned out to be 94%. Moreover, the “Preventive rate (%)” value with Puccinia recondita (setting [4]) was found to be 98%.
On to `CON=C1COc2cc(OCc3ccccc3N(OC)C(=O)OC)ccc21` [a-7, methyl N-[2-(3-methoxyimino-2,3-dihydro-benzofuran-6-yloxymethyl)-phenyl]-N-methoxycarbamate], for which the melting point was in the range of 102 to 103 °C. Moreover, the “Preventive rate (%)” value in data set [1] (setting [3]) came out at 94%. The “Preventive rate (%)” value in [1] (setting [4]) came out at 97%. Also, the “Preventive rate (%)” value in the data set with Botrytis cinerea (setting [3]) was 56%. The “Preventive rate (%)” value in the data set with Botrytis cinerea (setting [4]) was 97%. Also, in the data set on Puccinia recondita (setting [3]), the “Preventive rate (%)” value came out at 99%. The “Preventive rate (%)” value with Puccinia recondita (setting [4]) was 100%.
`CNC(=O)N(OC)c1ccccc1COc1ccc2c(c1)OCC2=NOC` [a-8, N-[2-(3-methoxyimino-2,3-dihydrobenzofuran-6-yloxymethyl)phenyl]-N-methoxy-N′-methylurea]: the melting point was 109 to 112 °C. Besides, the “Preventive rate (%)” value in [1] (setting [5]) came to 75%. Moreover, in [1] (setting [3]), the “Preventive rate (%)” value was found to be 88%. The “Preventive rate (%)” value in data set [1] (setting [4]) amounted to 94%. Further, in the data set with Puccinia recondita (setting [3]), the “Preventive rate (%)” value was found to be 99%. Also, in the data set on Puccinia recondita (setting [4]), the “Preventive rate (%)” value was determined as 100%.
On to `CNC(=O)/C(=N/OC)c1ccccc1COc1ccc2c(c1C)OCC2=NOC` [a-16], for which, in the data set on Puccinia recondite (setting [6]), the “Number of lesions formed within the mark to the tip” value (from here on “Number”) is 0. For the same compound, the “Preventive rate (%)” value turned out to be 100% in the data set with Puccinia recondite (setting [6]); 100% in [1] (setting [5]); 100% in data set [1] (setting [3]); 100% in [1] (setting [4]); 75% in the data set with Chochliobolus miyabeanus (setting [5]); 95% in the data set with Chochliobolus miyabeanus (setting [3]). In addition, the “Preventive rate (%)” value with Chochliobolus miyabeanus (setting [4]) stood at 98%; in the data set on Botrytis cinerea (setting [5]), 42%; with Botrytis cinerea (setting [3]) it was 84%; in the data set with Botrytis cinerea (setting [4]) it was 87%; in the data set on Rhizoctonia solani (setting [3]), 50%; with Rhizoctonia solani (setting [4]), 92%. In addition, the “Preventive rate (%)” value in the data set on Pyricularia oryzae (setting [5]) worked out at 86%; in the data set with Pyricularia oryzae (setting [3]) it was 89%; with Pyricularia oryzae (setting [4]), 96%; in the data set with Phytophthora infestans (setting [5]) it was 91%; in the data set on Phytophthora infestans (setting [3]), 97%; in the data set with Phytophthora infestans (setting [4]), 100%. Further, the “Preventive rate (%)” value in the data set with Erysiphe graminis (setting [3]), with Erysiphe graminis (setting [4]), in the data set on Puccinia recondita (setting [5]), with Puccinia recondita (setting [3]) and with Puccinia recondita (setting [4]) was 100% throughout. Moreover, the “Rate of the translocation perfect preventive conc. (%)” value in the data set with Puccinia recondite (setting [6]) stood at 100%. In data set [2], the Index is 3 (At least 40% of the area of the leaf was free from the disease.).
For the compound `CNC(=O)/C(=N/OC)c1ccccc1COc1cc2c(cc1C)C(=NOC)CO2` [a-27], in the data set with Puccinia recondite (setting [6]), the “Number” value is given as 0. Moreover, the “Preventive rate (%)” value in the data set on Puccinia recondite (setting [6]) is given as 100%; with Chochliobolus miyabeanus (setting [3]), 77%; with Chochliobolus miyabeanus (setting [4]) it was 83%; with Pyricularia oryzae (setting [3]), 77%; in the data set with Pyricularia oryzae (setting [4]) it was 82%; with Phytophthora infestans (setting [5]) it was 95%. The “Preventive rate (%)” value with Phytophthora infestans (setting [3]) stood at 95%; in the data set with Phytophthora infestans (setting [4]) it was 95%; in the data set on Erysiphe graminis (setting [5]), 100%; with Erysiphe graminis (setting [3]), 100%; with Erysiphe graminis (setting [4]) it was 100%; in the data set on Puccinia recondita (setting [5]), 98%. Moreover, the “Preventive rate (%)” value with Puccinia recondita (setting [3]) and in the data set on Puccinia recondita (setting [4]) was 100% each time. In addition, in the data set with Puccinia recondite (setting [6]), the “Rate of the translocation perfect preventive conc. (%)” value was determined as 100%.
`CCON=C1COc2cc(OCc3ccccc3/C(=N\OC)C(=O)NC)ccc21` [a-37, (E) methoxyimino-[2-(3-ethoxyimino-2,3-dihydrobenzofuran-6-yloxymethyl)-phenyl]-N-methyl-acetamide] returned a melting point of 110 to 113 °C. The “Preventive rate (%)” value in [1] (setting [3]) is recorded as 100%. Besides, the “Preventive rate (%)” value in [1] (setting [4]) amounted to 100%. Also, the “Preventive rate (%)” value with Botrytis cinerea (setting [3]) was found to be 100%. The “Preventive rate (%)” value in the data set on Botrytis cinerea (setting [4]) is reported as 100%. Moreover, the “Preventive rate (%)” value in the data set on Puccinia recondita (setting [3]) was found to be 99%. For the same compound, the “Preventive rate (%)” value with Puccinia recondita (setting [4]) amounted to 100%.
For the compound `CNC(=O)C(=NOC)c1ccccc1COc1ccc2c(c1)OCCC2=NOC` [c-5], the “Number” value with Puccinia recondite (setting [6]) is recorded as 0. Moreover, the “Preventive rate (%)” value with Puccinia recondite (setting [6]) is recorded as 100%; in data set [1] (setting [3]), 100%; in [1] (setting [4]) it was 100%; in the data set on Chochliobolus miyabeanus (setting [3]) it was 35%; with Chochliobolus miyabeanus (setting [4]) it was 100%; in the data set with Rhizoctonia solani (setting [3]), 39%. The “Preventive rate (%)” value with Rhizoctonia solani (setting [4]) is listed as 89%; in the data set on Pyricularia oryzae (setting [3]), 97%; in the data set on Pyricularia oryzae (setting [4]), 99%; in the data set with Phytophthora infestans (setting [3]) it was 88%; with Phytophthora infestans (setting [4]) it was 94%; in the data set on Puccinia recondita (setting [3]) it was 96%. In addition, the “Preventive rate (%)” value in the data set on Puccinia recondita (setting [4]) was 100%. The “Rate of the translocation perfect preventive conc. (%)” value in the data set on Puccinia recondite (setting [6]) was 100%. The Index in data set [2] is 3 (At least 40% of the area of the leaf was free from the disease.).
As for `COC=C(C(=O)OC)c1ccccc1COc1ccc2c(c1C)OCCC2=NOC` [c-13], the “Number” value in the data set with Puccinia recondite (setting [4]) came to 0. Besides, the “Preventive rate (%)” value in the data set on Puccinia recondite (setting [4]) was 100%; in data set [1] (setting [5]) it was 100%; in [1] (setting [3]), 100%; in data set [1] (setting [4]), 100%; in the data set with Chochliobolus miyabeanus (setting [5]), 82%; in the data set on Chochliobolus miyabeanus (setting [3]), 93%. Further, the “Preventive rate (%)” value in the data set with Chochliobolus miyabeanus (setting [4]) is 100%; with Botrytis cinerea (setting [3]) it was 49%; in the data set on Botrytis cinerea (setting [4]), 58%; in the data set with Pyricularia oryzae (setting [3]), 94%; in the data set with Pyricularia oryzae (setting [4]) it was 100%; in the data set with Phytophthora infestans (setting [5]), 95%. For the same compound, the “Preventive rate (%)” value in the data set with Phytophthora infestans (setting [3]), with Phytophthora infestans (setting [4]), in the data set on Erysiphe graminis (setting [5]), with Erysiphe graminis (setting [3]), with Erysiphe graminis (setting [4]) and with Puccinia recondita (setting [5]) was 100% each time. The “Preventive rate (%)” value with Puccinia recondita (setting [3]) and in the data set on Puccinia recondita (setting [4]) was 100% throughout. Also, the “Rate of the translocation perfect preventive conc. (%)” value with Puccinia recondite (setting [4]) is reported as 100%.
On to `CNC(=O)C(=NOC)c1ccccc1COc1ccc2c(c1)CCC2=NOC` [e-5], for which the “Number” value with Puccinia recondite (setting [6]) was 0. Besides, the “Preventive rate (%)” value with Puccinia recondite (setting [6]) was 100%; in data set [1] (setting [3]), 100%; in data set [1] (setting [4]) it was 100%; in the data set on Chochliobolus miyabeanus (setting [3]), 84%; in the data set on Chochliobolus miyabeanus (setting [4]), 90%; with Pyricularia oryzae (setting [3]), 97%. The “Preventive rate (%)” value in the data set with Pyricularia oryzae (setting [4]) is on record as 100%; in the data set with Phytophthora infestans (setting [3]) it was 95%; in the data set with Phytophthora infestans (setting [4]), 98%; with Erysiphe graminis (setting [3]) it was 95%; in the data set with Erysiphe graminis (setting [4]) it was 100%; in the data set with Puccinia recondita (setting [3]) it was 99%. Besides, the “Preventive rate (%)” value in the data set with Puccinia recondita (setting [4]) is given as 100%. The “Rate of the translocation perfect preventive conc. (%)” value with Puccinia recondite (setting [6]) is 100%. Besides, the Index in data set [2] is given as 3 (At least 40% of the area of the leaf was free from the disease.).
